Assay results reported in ChEMBL document CHEMBL5137013 (Eur J Med Chem, 2022).
The source made the active and inactive calls. No cut-off for these calls is given here.

Assays:
[1] = target: T1, Tubulin (Homo sapiens) (UniProt P68371+Q9H4B7+P0DPH7+P68366+Q13509+Q71U36+P04350+Q3ZCM7+P07437+P68363+Q9BQE3+Q6PEY2+Q13885+Q9BVA1+Q9BUF5); assay: Inhibition of tubulin polymerization in human HT-29 cells assessed as up regulation of detyrosinated-alpha-tubulin expression at 25 to 100 nM measured after 24 hrs by Western blot analysis; assay type: cell-based; settings: dose 25-100 nM
[2] = test system: HT-29; assay: Inhibition of colony formation in human HT-29 cells at 12.5 nM measured after 24 hrs by crystal violet staining based assay; assay type: functional, cell-based
[3] = test system: HT-29; assay: Cell cycle arrest in human HT-29 cells assessed as effect on cyclin B1 expression at 25 to 100 nM measured after 24 hrs by Western blot analysis; assay type: functional, cell-based; settings: dose 25-100 nM
[4] = test system: HT-29; assay: Antitumor activity against human HT-29 cells xenografted in BALB/c nude mouse assessed as reduction in tumor weight at 10 mg/kg, ip administered as 2 days interval for 3 weeks and measured 3 weeks post-initial dosing relative to control; assay type: functional; design: scale not given: the % may be the effect or the level left
[5] = Toxicity in human HT-29 cells xenografted BALB/c nude mouse assessed as effect on liver at 5 to 10 mg/kg, ip administered as 2 days interval for 3 weeks and measured 3 weeks post-initial dosing by H and E staining based histopathological analysis; assay type: organism-based; settings: in vivo, 504 h, dose 5-10 mg/kg
[6] = target: T1, Tubulin (Homo sapiens); assay: Induction of microtubule disruption in human HT-29 cells measured after 6 hrs by immunofluorescence assay; assay type: cell-based; settings: dose 25-100 nM, DDE = dose-dependent effect
[7] = test system: A549; assay: Antimigratory activity against human A549 cells assessed as reduction in scratch wound recovery measured after 24 hrs by scratch wound healing assay; assay type: functional, cell-based; settings: dose 15-250 nM, DDE = dose-dependent effect
[8] = test system: HT-29; assay: Induction of apoptosis in human HT-29 cells assessed as down regulation of Bim expression at 25 to 100 nM measured after 24 hrs by Western blot analysis; assay type: functional, cell-based; settings: dose 25-100 nM
[9] = test system: HT-29; assay: Cell cycle arrest in human HT-29 cells assessed as effect on cdk7 expression at 25 to 100 nM measured after 24 hrs by Western blot analysis; assay type: functional, cell-based; settings: dose 25-100 nM
[10] = Toxicity in human HT-29 cells xenografted BALB/c nude mouse assessed as effect on lung at 5 to 10 mg/kg, ip administered as 2 days interval for 3 weeks and measured 3 weeks post-initial dosing by H and E staining based histopathological analysis; assay type: organism-based; settings: in vivo, 504 h, dose 5-10 mg/kg
[11] = Toxicity in human HT-29 cells xenografted BALB/c nude mouse assessed as effect on heart at 5 to 10 mg/kg, ip administered as 2 days interval for 3 weeks and measured 3 weeks post-initial dosing by H and E staining based histopathological analysis; assay type: organism-based; settings: in vivo, 504 h, dose 5-10 mg/kg
[12] = Resistance index, ratio of IC50 for human A549/TxR cells to IC50 for human A549 cells; assay type: functional
[13] = Half-life in Sprague-Dawley rat at 10 mg/kg, iv by HPLC-MS/MS analysis; assay type: ADME, organism-based; settings: in vivo
[14] = test system: HT-29; assay: Induction of ROS generation in human HT-29 cells measured after 24 hrs by DCFH-DA dye based confocal laser scanning microscopy; assay type: functional, cell-based; settings: dose 25-100 nM, DDE = dose-dependent effect
[15] = test system: HT-29; assay: Cytotoxicity against human HT-29 cells assessed as reduction in cell viability measured after 24 hrs by MTT assay; assay type: functional, cell-based; settings: HT-29, 24 h
[16] = test system: HeLa; assay: Cytotoxicity against human HeLa cells assessed as reduction in cell viability measured after 24 hrs by MTT assay; assay type: functional, cell-based
[17] = test system: HT-29; assay: Cell cycle arrest in human HT-29 cells assessed as effect on cdc2 expression at 25 to 100 nM measured after 24 hrs by Western blot analysis; assay type: functional, cell-based; settings: dose 25-100 nM
[18] = Toxicity in human HT-29 cells xenografted BALB/c nude mouse assessed as effect on kidney at 5 to 10 mg/kg, ip administered as 2 days interval for 3 weeks and measured 3 weeks post-initial dosing by H and E staining based histopathological analysis; assay type: organism-based; settings: in vivo, 504 h, dose 5-10 mg/kg
[19] = species: Sus scrofa; assay: (§1) Inhibition of porcine brain tubulin polymerization measured at 1 min interval for 60 mins by fluorescence assay; settings: dose 1.25-5 µM, DDE = dose-dependent effect
[20] = as §1; design: species or system Sus scrofa
[21] = test system: HT-29; assay: Cell cycle arrest in human HT-29 cells assessed as cell accumulation at G2/M phase at 100 nM measured after 24 hrs by propidium iodide staining based flow cytometry (reference value: 20.9%); assay type: functional
[22] = test system: HT-29; assay: Induction of apoptosis in human HT-29 cells assessed as increase in cleaved caspase-9 expression at 25 to 100 nM measured after 24 hrs by Western blot analysis; assay type: functional, cell-based; settings: dose 25-100 nM
[23] = target: T1, Tubulin (Homo sapiens); assay: Inhibition of tubulin polymerization in human HT-29 cells assessed as up regulation of acetylated-alpha-tubulin expression at 25 to 100 nM measured after 24 hrs by Western blot analysis; assay type: cell-based; settings: dose 25-100 nM
[24] = test system: HT-29; assay: Antitumor activity against human HT-29 cells xenografted in ip dosed BALB/c nude mouse assessed as tumor growth inhibition administered at 2 days interval for 3 weeks; assay type: functional, organism-based; settings: DDE = dose-dependent effect
[25] = test system: A549; assay: Antimigratory activity against human A549 cells assessed as reduction in number of penetrated cells at 12.5 to 100 nM measured after 24 hrs by crystal violet staining based transwell assay; assay type: functional, cell-based; settings: dose 12.5-100 nM
[26] = target: T1, Tubulin (Homo sapiens); assay: Displacement of [3H] colchicine from tubulin (unknown origin) at 5 uM measured after 2 hrs by scintillation counting analysis relative to control; assay type: protein-complex assay
[27] = test system: HT-29; assay: Cell cycle arrest in human HT-29 cells assessed as effect on cdc25 expression at 25 to 100 nM measured after 24 hrs by Western blot analysis; assay type: functional, cell-based; settings: dose 25-100 nM
[28] = test system: HT-29; assay: Induction of apoptosis in human HT-29 cells assessed as up regulation of phosphorylated Bcl-2 expression at 25 to 100 nM measured after 24 hrs by Western blot analysis; assay type: functional, cell-based; settings: dose 25-100 nM
[29] = test system: HT-29; assay: Induction of apoptosis in human HT-29 cells at 25 to 100 nM measured after 24 hrs by Annexin V-FITC/propidium iodide staining based flow cytometry; assay type: functional, cell-based; settings: dose 25-100 nM
[30] = Cytotoxicity against human A549/TxR cells assessed as reduction in cell viability measured after 24 hrs by MTT assay; assay type: functional, cell-based
[31] = test system: HT-29; assay: Induction of apoptosis in human HT-29 cells assessed as increase in cleaved PARP expression at 25 to 100 nM measured after 24 hrs by Western blot analysis; assay type: functional, cell-based; settings: dose 25-100 nM
[32] = Cmax in Sprague-Dawley rat at 10 mg/kg, iv by HPLC-MS/MS analysis; assay type: ADME, organism-based; design: dose 10 mg/kg, route iv; settings: in vivo
[33] = test system: MCF7; assay: Cytotoxicity against human MCF7 cells assessed as reduction in cell viability measured after 24 hrs by MTT assay; settings: MCF7, 24 h
[34] = test system: HT-29; assay: Inhibition of colony formation in human HT-29 cells at 100 nM measured after 24 hrs by crystal violet staining based assay; assay type: functional
[35] = test system: A549; assay: Antimigratory activity against human A549 cells assessed as reduction in scratch wound recovery at 60 nM measured after 24 hrs by scratch wound healing assay relative to control; assay type: functional; design: scale not given: the % may be the effect or the level left
[36] = test system: HT-29; assay: Induction of mitochondrial dysfunction in human HT-29 cells assessed as reduction in red fluorescence intensity measured after 24 hrs by JC-1 staining based JC-1 dye based confocal laser scanning microscopy; assay type: functional, cell-based; settings: dose 25-100 nM, DDE = dose-dependent effect
[37] = Resistance index, ratio of IC50 for human MCF7/TxR cells to IC50 for human MCF7 cells; assay type: functional

COC(=O)c1cc2c(cc1Nc1cc(OC)c(OC)c(OC)c1)OCCO2
inhibition [1]: Active | inhibition [2]: Active | Activity [3]: Active | Activity [4]: 75.5% | Activity [5]: Non-Toxic | Activity [6]: Dde | Activity [7]: Dde | Activity [8]: Active | Activity [9]: Active | Activity [10]: Non-Toxic | Activity [11]: Non-Toxic | Ratio IC50 [12]: 1.2 | t1/2 [13]: 1.73 h | Activity [14]: Dde | IC50 [15]: 23 nM | IC50 [16]: 35 nM | Activity [17]: Active | Activity [18]: Non-Toxic | inhibition [19]: Dde | IC50 [20]: 1090 nM | Activity [21]: 87.5% | Activity [22]: Active | inhibition [23]: Active | TGI [24]: Dde | Activity [25]: Active | inhibition [26]: 93.5% | Activity [27]: Active | Activity [28]: Active | Activity [29]: Active | IC50 [30]: 310 nM | Activity [31]: Active | Cmax [32]: 6880 ng/mL | IC50 [33]: 140 nM | inhibition at 0.1 µM [34]: 100% | Activity [35]: 85.2% | Activity [36]: Dde | Ratio IC50 [37]: 1.3
